Read-outs that look alike come from different tables or passages of the source.
Legend:
[1] = in vivo
[2] = Francois et al. 1998; cited from earlier work
[3] = for Lauric acid content of milk: lactating women, baseline 3.9%
bacteria = settings: Batovska et al. 2009; cited from earlier work

Time remaining significantly elevated in milk ([1]; human) [days] | Time of maximum increase in human milk [1] [h] | Time to significant increase in human milk after consumption of the test formula [1] [h] | Milk content of lauric acid over time ([3]; ingestion of formula containing 40 g coconut oil, P<0.001) | Lauric acid content of milk ([3]; 10 h after consuming 40 g coconut oil composition) | Lauric acid content of milk ([3]; 14 hr after consuming 40 g coconut oil composition) | SMILES | Time to significant increase in human milk after consumption by the lactating mother [2] [h] | Antibacterial activity among medium chain fatty acids and their monoacylglycerols (bacteria)
2 | 24 | ≤ 6 | – | – | – | CC/C=C\C/C=C\C/C=C\C/C=C\C/C=C\C/C=C\CCC(=O)O [docosahexaenoic acid] | – | –
– | 14 | ≤ 6 | – | – | – | CC/C=C\C/C=C\C/C=C\C/C=C\C/C=C\CCCC(=O)O [eicosapentaenoic acid] | – | –
– | 14 | ≤ 6 | increases | 9.2 % of fatty acids | 9.6 % of fatty acids | CCCCCCCCCCCC(=O)O [lauric acid] | ≤ 6 | –
– | – | – | – | – | – | CCCCCCCCCCCC(=O)OCC(O)CO (stereo not drawn) [monolaurin, glycerol monolaurate] | – | most active

Source: patent publication US20130084272A1, “COMPOSITIONS, KITS AND METHODS FOR NUTRITIONAL SUPPLEMENTATION WITH TWELVE CARBON CHAIN FATTY ACIDS AND TWELVE CARBON CHAIN ACYLGLYCEROLS” (priority 2011, published 2013)
